From patent US10800792B2, “Inhibitors of Bruton's tyrosine kinase and method of their use” (JANSSEN PHARMACEUTICA NV, priority 2015, dated 2020)

Biological target: unphosphorylated-BTK kinase domain (UP-BTK), GST-tagged human BTK (389-659aa) (Homo sapiens (Human), UniProt Q06187)
Test: BTK kinase Lanthascreen binding assay
Conditions: Lanthascreen tracer competition, 60 minutes incubation, pIC50 = negative log of the IC50 in molar
Method in brief: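 Compound binding to the unphosphorylated kinase domain was monitored by displacement of a fluorescently labelled tracer in a Lanthascreen format. Potency is given as pIC50, the negative log of the molar IC50.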

Chain of unphosphorylated-BTK kinase domain (UP-BTK), GST-tagged human BTK (389-659aa) (Q06187 389-659): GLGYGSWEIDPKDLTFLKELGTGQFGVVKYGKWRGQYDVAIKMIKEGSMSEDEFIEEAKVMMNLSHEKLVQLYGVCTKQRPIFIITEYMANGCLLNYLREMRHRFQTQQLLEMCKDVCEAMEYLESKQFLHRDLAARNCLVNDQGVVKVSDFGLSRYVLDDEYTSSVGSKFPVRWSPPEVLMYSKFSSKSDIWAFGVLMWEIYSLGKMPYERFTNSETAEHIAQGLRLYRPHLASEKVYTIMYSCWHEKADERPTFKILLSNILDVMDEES

| BTK_I_binding pIC50 | IC50 (read-out: BTK_I_binding pIC50 (converted)) [µM] | SMILES |
| --- | --- | --- |
| <5 | – | O=C(N[C@@H]1CCCNC1)c1sc2nccc3c2c1NC(=O)N3c1cccc(Oc2ccccc2)n1 [Example 645, (R)-4-Oxo-5-(6-phenoxypyridin-2-yl)-N-(piperidin-3-yl)-4,5-dihydro-3H-1-thia-3,5,8-triazaacenaphthylene-2-carboxamide] |
| <5 | – | CC(C)(C)c1cccc(N2C(=O)Nc3c(C(=O)N[C@@H]4CCCNC4)sc4nccc2c34)c1 [Example 646, (R)-5-(3-(tert-Butyl)phenyl)-4-oxo-N-(piperidin-3-yl)-4,5-dihydro-3H-1-thia-3,5,8-triazaacenaphthylene-2-carboxamide] |
| – | > 10 | O=C(N[C@@H]1CCCNC1)c1sc2nccc3c2c1NC(=O)N3c1cccc(-c2ccncc2)c1 [Example 647, (R)-4-Oxo-N-(piperidin-3-yl)-5-(3-(pyridin-4-yl)phenyl)-4,5-dihydro-3H-1-thia-3,5,8-triazaacenaphthylene-2-carboxamide] |
| <5 | – | CC(C)(C)OC(=O)N1CCC[C@@H](NC(=O)c2sc3nccc4c3c2NC(=O)N4c2cccc(C(C)(C)C)c2)C1 [Example 648, (R)-tert-Butyl 3-(5-(3-(tert-butyl)phenyl)-4-oxo-4,5-dihydro-3H-1-thia-3,5,8-triazaacenaphthylene-2-carboxamido)piperidine-1-carboxylate] |
| <5 | – | CC(=O)c1cccc(N2C(=O)Nc3c(C(=O)N[C@@H]4CCCN(C(=O)OC(C)(C)C)C4)sc4nccc2c34)c1 [Example 649, (R)-tert-Butyl 3-(5-(3-acetylphenyl)-4-oxo-4,5-dihydro-3H-1-thia-3,5,8-triazaacenaphthylene-2-carboxamido)piperidine-1-carboxylate] |

More lines, now with the values behind:

| SMILES | BTK_I_binding pIC50 | IC50 (read-out: BTK_I_binding pIC50 (converted)) [µM] |
| --- | --- | --- |
| C=CC(=O)N1CCC[C@@H](NC(=O)c2sc3nccc4c3c2NC(=O)N4c2cccc(C(C)(C)C)c2)C1 [Example 638, (R)—N-(1-Acryloylpiperidin-3-yl)-5-(3-(tert-butyl)phenyl)-4-oxo-4,5-dihydro-3H-1-thia-3,5,8-triazaacenaphthylene-2-carboxamide] | 5.7 | – |
| CO[C@H]1CN(C(=O)OC(C)(C)C)C[C@@H]1NC(=O)c1sc2nccc3c2c1NC(=O)N3c1ccc(Oc2ccccc2)cc1 [Example 639, (3S,4S)-tert-Butyl 3-methoxy-4-(4-oxo-5-(4-phenoxyphenyl)-4,5-dihydro-3H-1-thia-3,5,8-triazaacenaphthylene-2-carboxamido)pyrrolidine-1-carboxylate] | 5.7 | – |
| C=CC(=O)N1CCC[C@@H](NC(=O)c2sc3nccc4c3c2NC(=O)N4c2cc(OC(C)C)ccc2C)C1 [Example 640, (R)—N-(1-Acryloylpiperidin-3-yl)-5-(5-isopropoxy-2-methylphenyl)-4-oxo-4,5-dihydro-3H-1-thia-3,5,8-triazaacenaphthylene-2-carboxamide] | 5.6 | – |
| C=CC(=O)N1CCC[C@@H](NC(=O)c2sc3nccc4c3c2NC(=O)N4c2ccc(S(=O)(=O)C(C)(C)C)cc2)C1 [Example 641, (R)—N-(1-Acryloylpiperidin-3-yl)-5-(4-(tert-butylsulfonyl)phenyl)-4-oxo-4,5-dihydro-3H-1-thia-3,5,8-triazaacenaphthylene-2-carboxamide] | 5.6 | – |
| O=C(N[C@@H]1CCCNC1)c1sc2nccc3c2c1NC(=O)N3c1ccc(O)cc1 [Example 642, (R)-5-(4-Hydroxyphenyl)-4-oxo-N-(piperidin-3-yl)-4,5-dihydro-3H-1-thia-3,5,8-triazaacenaphthylene-2-carboxamide] | 5.3 | – |
| CC(=O)c1cccc(N2C(=O)Nc3c(C(=O)N[C@@H]4CCCNC4)sc4nccc2c34)c1 [Example 643, (R)-5-(3-Acetylphenyl)-4-oxo-N-(piperidin-3-yl)-4,5-dihydro-3H-1-thia-3,5,8-triazaacenaphthylene-2-carboxamide] | 5.1 | – |
| Cc1ccc(OC(C)C)cc1N1C(=O)Nc2c(C(=O)N[C@@H]3CCCNC3)sc3nccc1c23 [Example 644, (R)-5-(5-Isopropoxy-2-methylphenyl)-4-oxo-N-(piperidin-3-yl)-4,5-dihydro-3H-1-thia-3,5,8-triazaacenaphthylene-2-carboxamide] | <5 | – |
